This note sets out measurements from US9309242B2, “Substituted pyrido[2,3-b]pyrazines as FGFR kinase inhibitors” (priority 2011, dated 2016).

Like-named read-outs stand apart in the source and are kept apart here.

One assay has as its target FGFR1 (h) (Homo sapiens, UniProt P11362). As to the kind of experiment: FGFR1 (enzymatic assay), TR-FRET. In kind it is biochemical. Conditions: read-out: FGFR 1 pIC50 (converted).
The next assay has as its target FGFR3 (h) (Homo sapiens, UniProt P22607). As to the kind of experiment: FGFR3 (enzymatic assay), TR-FRET. Conditions: read-out: FGFR 3 pIC50 (converted). It counts as biochemical. From the text:
Time-Resolved Fluorescence Resonance Energy Transfer (TR-FRET) signal (ex340 nm.

In another assay the target is FGFR4 (h) (Homo sapiens, UniProt P22455). The experiment in a line: FGFR4 (enzymatic assay), TR-FRET. It counts as biochemical. Conditions: FGFR 4 pIC50, enzymatic assay. Background: Time-resolved FRET reads energy transfer from a long-lived donor to a nearby acceptor.
The next assay addresses KDR (h) (Homo sapiens, UniProt P35968). As to the kind of experiment: KDR (VEGFR2) (enzymatic assay), TR-FRET. In kind it is biochemical. Conditions: read-out: VEGFR 2 (KDR) pIC50 (converted). The method in brief: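 Phosphorylation of biotinylated Flt3 peptide (500 nM) by 150 ng/ml enzyme was measured at 3 μM ATP in Mn2+-containing HEPES buffer, pH 7.5, over 120 min at room temperature. Detection used Eu-anti-P-Tyr and SA-XL-665 TR-FRET.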

For assay [1], the target named is T1, Ba/F3-FGFR1-transfected cells (Homo sapiens, UniProt P11362).
T1 construct: BAF3-FGFR1 (MIN IL3) pIC50; other: minus IL3
As to the kind of experiment: Ba/F3-FGFR1 (minus IL3) cellular proliferation assay, Alamar Blue. It counts as cell-based. The method in brief: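 Read-out: resazurin reduction, fluorescence ex 540 nm/em 590 nm after 4 h Alamar Blue at 37 °C. Before that, FGFR1-transfected Ba/F3 cells (20000/well) sat with compound for 24 h in RPMI-1640/10% FBS/2 mM L-Gln.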

Assay [2] concerns Ba/F3-FGFR1-transfected cells. The experiment in a line: Ba/F3-FGFR1 (plus IL3) cellular proliferation assay, counterscreen with 10 ng/ml murine IL3. In kind it is cell-based. As to conditions: plus IL3 (10 ng/ml murine IL3, counterscreen); read-out: BAF3-FGFR1 (PLUS IL3) pIC50 (converted). The method in brief:
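Proliferation read-out: resazurin-based Alamar Blue fluorescence (540/590 nm) after 4 h, following 24 h compound treatment of 20000 Ba/F3-FGFR1 cells per well in 10% FBS RPMI at 37° C. IL3 counterscreen used the same protocol plus 10 ng/ml murine IL3.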
On the technique in general: A counterscreen serves to expose hits that act by an unwanted route or on another target.

The target in assay [3] is T2, Ba/F3-FGFR3-transfected cells (Homo sapiens, UniProt P22607).
T2 construct: BAF3-FGFR3 (MIN IL3) pIC50; other: minus IL3
As to the kind of experiment: Ba/F3-FGFR3 (minus IL3) cellular proliferation assay, Alamar Blue. In kind it is cell-based. The method in brief: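 Read-out: resazurin-based Alamar Blue fluorescence (ex 540 nm, em 590 nm) after a 4 h dye incubation. FGFR3-transfected Ba/F3 cells, 20000 per well, are exposed to compound for 24 h at 37° C in RPMI-1640/10% FBS. Plus-IL3 counterscreen adds 10 ng/ml murine IL3.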
A general note: Alamar Blue is a resazurin reagent that responds to reducing activity.

For assay [4], the system named is Ba/F3-KDR-transfected cells. As to the kind of experiment: Ba/F3-KDR (plus IL3) cellular proliferation assay, counterscreen with 10 ng/ml murine IL3. In kind it is cell-based. As to conditions: plus IL3 (10 ng/ml murine IL3, counterscreen); read-out: BAF3-KDR (PLUS IL3) pIC50 (converted). The method in brief: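 Compound in DMSO was dispensed first, then transfected cells in serum-containing RPMI-1640 were added. After a 24 h incubation, viability was gauged by resazurin reduction over 4 h, measured as fluorescence.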

The target in assay [5] is Ba/F3-FGFR4-transfected cells (Homo sapiens, UniProt P22455). As to the kind of experiment: Ba/F3-FGFR4 cellular proliferation assay, Alamar Blue. It counts as cell-based. The method in brief: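 Step one: compound dilutions in DMSO are sprayed into wells. Step two: transfected Ba/F3-FGFR4 cells are added at 20000 per well and incubated 24 hours at 37° C. Step three: Alamar Blue is added for 4 hours and relative fluorescence is measured.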

[6] abbreviates: average values if tested multiple times.

FGFR4 (h), sequence (P22455 22-802): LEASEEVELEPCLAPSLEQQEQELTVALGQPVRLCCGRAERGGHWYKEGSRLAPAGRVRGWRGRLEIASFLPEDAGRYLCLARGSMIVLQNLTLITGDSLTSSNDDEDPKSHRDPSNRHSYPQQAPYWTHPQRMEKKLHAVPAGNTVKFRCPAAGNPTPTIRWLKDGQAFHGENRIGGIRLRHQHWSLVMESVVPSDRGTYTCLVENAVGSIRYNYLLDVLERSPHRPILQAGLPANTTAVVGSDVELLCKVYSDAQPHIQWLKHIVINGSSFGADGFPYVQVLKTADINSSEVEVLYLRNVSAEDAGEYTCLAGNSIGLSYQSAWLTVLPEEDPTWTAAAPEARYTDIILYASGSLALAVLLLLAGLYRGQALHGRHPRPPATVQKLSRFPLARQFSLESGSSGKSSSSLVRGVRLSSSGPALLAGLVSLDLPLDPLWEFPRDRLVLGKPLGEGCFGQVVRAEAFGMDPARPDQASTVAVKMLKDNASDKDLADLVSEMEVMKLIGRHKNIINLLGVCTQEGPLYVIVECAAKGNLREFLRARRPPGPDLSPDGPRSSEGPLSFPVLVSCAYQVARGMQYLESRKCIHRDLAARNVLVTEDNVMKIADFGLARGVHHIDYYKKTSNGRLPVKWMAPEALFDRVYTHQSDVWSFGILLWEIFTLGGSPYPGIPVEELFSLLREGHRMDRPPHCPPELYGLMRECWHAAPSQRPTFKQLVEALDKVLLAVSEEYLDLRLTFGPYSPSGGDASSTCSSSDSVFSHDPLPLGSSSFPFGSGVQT
FGFR3 (h), sequence (P22607 23-806): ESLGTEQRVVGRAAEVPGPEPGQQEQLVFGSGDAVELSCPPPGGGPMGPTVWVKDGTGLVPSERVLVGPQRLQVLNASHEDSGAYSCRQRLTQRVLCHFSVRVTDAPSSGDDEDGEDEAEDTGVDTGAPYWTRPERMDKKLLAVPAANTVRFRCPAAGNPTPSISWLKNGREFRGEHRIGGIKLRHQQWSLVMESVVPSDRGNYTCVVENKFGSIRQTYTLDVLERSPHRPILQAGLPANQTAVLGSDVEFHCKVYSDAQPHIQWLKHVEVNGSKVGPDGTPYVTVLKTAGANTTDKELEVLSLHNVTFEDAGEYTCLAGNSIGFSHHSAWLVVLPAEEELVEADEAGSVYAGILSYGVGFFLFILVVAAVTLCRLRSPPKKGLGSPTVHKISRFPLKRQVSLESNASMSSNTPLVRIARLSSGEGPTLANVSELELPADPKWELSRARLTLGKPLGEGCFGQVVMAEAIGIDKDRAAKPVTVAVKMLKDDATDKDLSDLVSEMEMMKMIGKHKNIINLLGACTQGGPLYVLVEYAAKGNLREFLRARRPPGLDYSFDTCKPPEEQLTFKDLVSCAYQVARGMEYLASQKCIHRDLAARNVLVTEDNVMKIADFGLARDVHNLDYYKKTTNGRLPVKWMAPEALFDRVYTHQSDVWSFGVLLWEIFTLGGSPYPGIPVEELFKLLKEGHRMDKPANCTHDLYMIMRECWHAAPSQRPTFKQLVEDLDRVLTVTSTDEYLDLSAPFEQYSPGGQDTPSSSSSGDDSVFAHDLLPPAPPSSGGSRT
T2 sequence (P22607 whole entry, change not shown): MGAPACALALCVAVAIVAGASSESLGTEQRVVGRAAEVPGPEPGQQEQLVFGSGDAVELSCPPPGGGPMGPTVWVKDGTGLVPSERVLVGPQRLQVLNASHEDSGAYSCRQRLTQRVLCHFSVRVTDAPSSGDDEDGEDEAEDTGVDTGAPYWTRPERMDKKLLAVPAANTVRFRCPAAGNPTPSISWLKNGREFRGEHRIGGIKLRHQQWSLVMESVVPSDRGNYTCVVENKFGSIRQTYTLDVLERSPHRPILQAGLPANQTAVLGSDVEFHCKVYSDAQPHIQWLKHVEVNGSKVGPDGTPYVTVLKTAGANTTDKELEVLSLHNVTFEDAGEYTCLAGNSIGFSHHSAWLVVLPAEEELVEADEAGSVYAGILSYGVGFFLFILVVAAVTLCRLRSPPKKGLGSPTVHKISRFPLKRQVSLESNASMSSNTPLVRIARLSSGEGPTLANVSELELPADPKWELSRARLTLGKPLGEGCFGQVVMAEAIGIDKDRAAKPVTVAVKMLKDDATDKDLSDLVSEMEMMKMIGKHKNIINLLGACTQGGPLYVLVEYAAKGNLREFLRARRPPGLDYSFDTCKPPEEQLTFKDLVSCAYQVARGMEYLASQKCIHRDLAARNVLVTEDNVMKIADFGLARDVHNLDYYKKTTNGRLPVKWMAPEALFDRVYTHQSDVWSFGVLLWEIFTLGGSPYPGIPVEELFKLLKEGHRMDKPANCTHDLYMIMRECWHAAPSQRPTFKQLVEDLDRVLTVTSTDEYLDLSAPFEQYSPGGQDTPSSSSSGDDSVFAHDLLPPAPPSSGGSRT
T1 sequence (P11362 whole entry, change not shown): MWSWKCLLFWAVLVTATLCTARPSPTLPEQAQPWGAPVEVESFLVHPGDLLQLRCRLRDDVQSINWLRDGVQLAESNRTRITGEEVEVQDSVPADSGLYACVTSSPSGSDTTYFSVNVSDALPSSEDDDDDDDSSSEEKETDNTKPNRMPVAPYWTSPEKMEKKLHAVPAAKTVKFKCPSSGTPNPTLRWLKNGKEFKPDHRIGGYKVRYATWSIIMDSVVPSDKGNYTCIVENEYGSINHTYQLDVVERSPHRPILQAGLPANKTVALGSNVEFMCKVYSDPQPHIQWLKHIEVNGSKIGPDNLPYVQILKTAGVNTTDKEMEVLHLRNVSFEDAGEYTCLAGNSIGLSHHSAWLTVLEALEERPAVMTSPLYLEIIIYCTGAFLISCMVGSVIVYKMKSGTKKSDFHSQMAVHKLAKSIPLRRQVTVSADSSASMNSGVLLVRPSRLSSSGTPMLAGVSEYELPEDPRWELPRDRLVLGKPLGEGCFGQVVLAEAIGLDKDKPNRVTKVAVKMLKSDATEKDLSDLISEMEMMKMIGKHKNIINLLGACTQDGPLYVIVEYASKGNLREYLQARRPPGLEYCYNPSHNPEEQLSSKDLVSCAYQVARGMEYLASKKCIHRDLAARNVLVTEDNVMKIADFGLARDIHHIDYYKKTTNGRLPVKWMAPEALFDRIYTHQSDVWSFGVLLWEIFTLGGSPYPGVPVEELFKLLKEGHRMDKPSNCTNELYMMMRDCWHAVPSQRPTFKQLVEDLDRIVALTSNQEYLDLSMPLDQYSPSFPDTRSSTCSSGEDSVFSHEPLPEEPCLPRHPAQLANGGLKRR
Ba/F3-FGFR4-transfected cells, sequence (P22455 whole entry, change not shown): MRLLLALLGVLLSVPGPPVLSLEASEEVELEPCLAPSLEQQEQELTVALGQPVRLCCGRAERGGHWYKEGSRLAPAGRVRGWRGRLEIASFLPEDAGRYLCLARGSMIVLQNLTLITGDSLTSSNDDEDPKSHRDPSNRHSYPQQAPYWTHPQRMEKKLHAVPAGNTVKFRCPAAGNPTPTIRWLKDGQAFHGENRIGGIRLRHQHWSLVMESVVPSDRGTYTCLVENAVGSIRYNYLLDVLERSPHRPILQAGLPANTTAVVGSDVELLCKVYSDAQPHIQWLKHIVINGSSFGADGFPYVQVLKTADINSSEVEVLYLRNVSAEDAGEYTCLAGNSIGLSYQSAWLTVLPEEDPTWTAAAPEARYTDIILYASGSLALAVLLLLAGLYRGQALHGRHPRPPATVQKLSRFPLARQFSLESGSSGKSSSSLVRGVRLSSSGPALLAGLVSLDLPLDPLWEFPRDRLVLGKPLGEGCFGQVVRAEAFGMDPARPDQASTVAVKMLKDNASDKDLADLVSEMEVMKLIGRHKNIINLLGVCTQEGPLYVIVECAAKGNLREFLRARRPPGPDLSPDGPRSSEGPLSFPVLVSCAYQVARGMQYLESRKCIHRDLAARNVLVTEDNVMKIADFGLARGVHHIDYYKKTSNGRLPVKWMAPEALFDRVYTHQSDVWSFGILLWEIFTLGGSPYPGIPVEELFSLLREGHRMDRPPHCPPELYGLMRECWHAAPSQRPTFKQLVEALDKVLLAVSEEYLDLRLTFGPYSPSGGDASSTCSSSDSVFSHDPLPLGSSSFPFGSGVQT
FGFR1 (h), sequence (P11362 22-822): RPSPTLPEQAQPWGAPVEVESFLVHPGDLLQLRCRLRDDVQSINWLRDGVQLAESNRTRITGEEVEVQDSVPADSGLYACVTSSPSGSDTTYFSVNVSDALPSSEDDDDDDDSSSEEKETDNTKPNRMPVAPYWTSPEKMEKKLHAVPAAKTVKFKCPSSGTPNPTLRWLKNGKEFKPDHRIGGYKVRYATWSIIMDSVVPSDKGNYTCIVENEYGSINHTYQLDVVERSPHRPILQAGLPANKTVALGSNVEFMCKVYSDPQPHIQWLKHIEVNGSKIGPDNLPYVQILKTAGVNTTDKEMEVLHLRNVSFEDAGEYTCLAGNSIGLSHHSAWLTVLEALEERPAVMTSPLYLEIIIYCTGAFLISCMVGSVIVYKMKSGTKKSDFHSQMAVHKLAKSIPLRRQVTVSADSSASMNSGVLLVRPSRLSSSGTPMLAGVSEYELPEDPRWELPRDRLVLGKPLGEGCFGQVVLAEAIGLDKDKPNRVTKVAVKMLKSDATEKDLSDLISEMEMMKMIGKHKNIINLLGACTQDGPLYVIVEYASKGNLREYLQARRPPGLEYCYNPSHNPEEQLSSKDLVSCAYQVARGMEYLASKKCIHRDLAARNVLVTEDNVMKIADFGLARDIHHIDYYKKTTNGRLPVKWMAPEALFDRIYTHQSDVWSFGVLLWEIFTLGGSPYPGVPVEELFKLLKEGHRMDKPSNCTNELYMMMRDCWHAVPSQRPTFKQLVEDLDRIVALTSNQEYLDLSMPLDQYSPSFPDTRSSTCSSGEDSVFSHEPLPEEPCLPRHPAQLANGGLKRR

For the compound `COc1cc(OC)cc(N(Cc2ncc[nH]2)c2ccc3ncc(-c4cnn(C)c4)nc3n2)c1` [Compound 24], the IC50 was 0.55 nM on FGFR1 (h) (setting [6]); 0.603 nM at FGFR3 (h) (setting [6]); 0.741 nM at FGFR4 (h) (setting [6]); 10.7 nM on KDR (h) (setting [6]); above 10000 nM in assay [2]; above 10000 nM in [4]. Also, the “BAF3-FGFR1 (MIN IL3) pIC50” value in [1] stood at 8.46. In addition, in assay [3], the “BAF3-FGFR3 (MIN IL3) pIC50” value amounted to 8.20. For the same compound, the “BAF3-FGFR4 pIC50” value in [5] is 7.77.
On to `COc1cc(OC)c(F)c(N(Cc2nncn2C)c2ccc3ncc(-c4cnn(C)c4)nc3n2)c1` [Compound 132], for which the IC50 at FGFR1 (h) is 5.62 nM; at FGFR3 (h), 4.27 nM; at FGFR4 (h), 17.4 nM; on KDR (h), 42.7 nM; in [2] it was above 10000 nM; in [4], above 10000 nM. In addition, in assay [1], the “BAF3-FGFR1 (MIN IL3) pIC50” value is given as 6.62. For the same compound, the “BAF3-FGFR3 (MIN IL3) pIC50” value in assay [3] was around 6.64. Moreover, in assay [5], the “BAF3-FGFR4 pIC50” value is around 6.13.
On to `COc1cc(OC)c(F)c(N(Cc2nccn2C)c2ccc3ncc(-c4cnn(C)c4)nc3n2)c1` [Compound 131], for which the IC50 at FGFR1 (h) is 2.14 nM; at FGFR3 (h), 2.95 nM; at FGFR4 (h), 7.41 nM; on KDR (h), 19.1 nM; in assay [2] it was above 10000 nM; in assay [4], above 10000 nM. The “BAF3-FGFR1 (MIN IL3) pIC50” value in [1] was found to be 7.62. The “BAF3-FGFR3 (MIN IL3) pIC50” value in [3] is listed as 7.25. Moreover, the “BAF3-FGFR4 pIC50” value in assay [5] worked out at 6.62.
In the case of `COc1cc(OC)c(F)c(/N=c2\ccc3ncc(-c4cnn(C)c4)nc3n2CCN)c1F` [Compound 68], the IC50 at FGFR1 (h) (setting [6]) was 0.575 nM; on FGFR3 (h) (setting [6]) it was 1.62 nM; against FGFR4 (h) (setting [6]) it was 2 nM; on KDR (h) (setting [6]) it was 15.8 nM; in assay [2] it was above 10000 nM; in assay [4], above 10000 nM. In addition, the “BAF3-FGFR1 (MIN IL3) pIC50” value in [1] came out at 7.86. Besides, the “BAF3-FGFR3 (MIN IL3) pIC50” value in assay [3] was found to be 7.70. In addition, in [5], the “BAF3-FGFR4 pIC50” value stood at 7.14.
Turning to `CNCCn1/c(=N/c2c(F)cccc2F)ccc2ncc(-c3cnn(C)c3)nc21` [Compound 44], the IC50 on FGFR1 (h) (setting [6]) is 490 nM; on FGFR3 (h) (setting [6]), around 794 nM; against FGFR4 (h) (setting [6]), 2820 nM; at KDR (h) (setting [6]), above 1000 nM; in assay [2], above 10000 nM; in assay [4] it was above 10000 nM. For the same compound, the “BAF3-FGFR1 (MIN IL3) pIC50” value in assay [1] was 5.12. Besides, in [3], the “BAF3-FGFR3 (MIN IL3) pIC50” value is below 5. Further, the “BAF3-FGFR4 pIC50” value in [5] is below 5.
Regarding `COc1cc(OC)c(F)c(N(Cc2cnccn2)c2ccc3ncc(-c4cnn(C)c4)nc3n2)c1F` [Compound 10], the IC50 at FGFR1 (h) (setting [6]) is 15.8 nM; at FGFR3 (h) (setting [6]), 63.1 nM; against FGFR4 (h) (setting [6]) it was 100 nM; at KDR (h) (setting [6]), 31.6 nM; in assay [2] it was above 10000 nM; in [4], above 10000 nM. In [1], the “BAF3-FGFR1 (MIN IL3) pIC50” value is reported as 8.1. In addition, in [3], the “BAF3-FGFR3 (MIN IL3) pIC50” value was found to be 7.85. Besides, the “BAF3-FGFR4 pIC50” value in assay [5] turned out to be 7.57.
For `CNCCn1/c(=N/c2cc(OC)cc(OC)c2F)ccc2ncc(-c3cnn(C)c3)nc21` [Compound 38], the IC50 at FGFR1 (h) (setting [6]) was 2.45 nM; on FGFR3 (h) (setting [6]), 4.9 nM; against FGFR4 (h) (setting [6]), 17.8 nM; at KDR (h) (setting [6]), 74.1 nM; in assay [2] it was above 10000 nM; in assay [4], above 10000 nM. For the same compound, the “BAF3-FGFR1 (MIN IL3) pIC50” value in assay [1] worked out at 6.92. Further, the “BAF3-FGFR3 (MIN IL3) pIC50” value in [3] is 6.27. In addition, in assay [5], the “BAF3-FGFR4 pIC50” value came to 5.74.
For `COc1cc(OC)cc(N(CC2CCC(=O)N2)c2ccc3ncc(-c4cnn(C)c4)nc3n2)c1` (stereo not drawn) [Compound 49], the IC50 on FGFR1 (h) (setting [6]) was 3.24 nM; on FGFR3 (h) (setting [6]), 1.62 nM; on FGFR4 (h) (setting [6]), 6.31 nM; at KDR (h) (setting [6]) it was 60.3 nM; in assay [2], above 10000 nM; in assay [4], above 10000 nM. Further, the “BAF3-FGFR1 (MIN IL3) pIC50” value in [1] is reported as 6.78. Moreover, the “BAF3-FGFR3 (MIN IL3) pIC50” value in assay [3] was around 6.85. Moreover, in assay [5], the “BAF3-FGFR4 pIC50” value is 6.24.
